The values that follow come from US6340588B1, “Matrices with memories” (Discovery Partners International, Inc., priority 1995, dated 2002).

The target of this test is 125I-streptavidin (Streptomyces avidinii, UniProt P22629).
125I-streptavidin, sequence (P22629 25-183): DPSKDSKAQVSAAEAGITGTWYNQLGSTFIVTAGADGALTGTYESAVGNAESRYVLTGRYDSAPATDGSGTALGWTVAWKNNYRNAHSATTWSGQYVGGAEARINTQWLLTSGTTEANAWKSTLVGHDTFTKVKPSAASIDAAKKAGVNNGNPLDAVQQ

With `O=C1NCC(C(=O)O)N1` (stereo not shown) [2-imidazolidone-4-carboxylic acid], the “signal in scintillation proximity assay (binding to 125I-streptavidin)” value is recorded as “lower signal”.
